Data reported in ChEMBL document CHEMBL1135425, “Antitumor agents. 213. Modeling of epipodophyllotoxin derivatives using variable selection k nearest neighbor QSAR method” (J Med Chem, 2002).

Each compound was assayed on Nucleic Acid (assay: Ability to form intracellular covalent DNA topoisomerase II complex; activity expressed as the percentage of cellular protein-DNA complex formed (exp-2)).
Format: functional, cell-based
In the case of `COc1cc([C@@H]2c3cc4c(cc3C(Nc3ccccc3)[C@H]3COC(=O)[C@H]23)OCO4)cc(O)c1O` (stereo partly specified), the Complex formation is reported as 128%.

Each compound was assayed against T1, DNA topoisomerase II (Homo sapiens) (UniProt P11388+Q02880) (assay: Percentage of intracellular covalent DNA-topoisomerase II complexes formed).
Format: cell-based
`COc1cc([C@@H]2c3cc4c(cc3[C@@H](NCc3ccc(F)cc3)[C@H]3COC(=O)[C@H]23)OCO4)cc(OC)c1O` showed a Complex formation of 169%. Compound `COc1cc([C@@H]2c3cc(O)c(O)cc3C(Nc3ccc(C#N)cc3)[C@H]3COC(=O)[C@H]23)cc(OC)c1OC` (stereo partly specified) has a Complex formation of 33%. `COc1cc([C@@H]2c3cc4c(cc3C(Nc3ccc([N+](=O)[O-])cc3)[C@H]3COC(=O)[C@H]23)OCO4)cc(O)c1O` (stereo partly specified) showed a Complex formation of 200%. `COc1cc([C@@H]2c3cc4c(cc3[C@@H](NCc3ccccc3F)[C@H]3COC(=O)[C@H]23)OCO4)cc(OC)c1O` was tested, and the Complex formation was 126%. `COc1cc([C@@H]2c3cc(O)c(O)cc3C(Nc3ccc(C#N)cc3)[C@H]3COC(=O)[C@H]23)cc(OC)c1O` (stereo partly specified) gave a Complex formation of 62%. In the case of `COC(=O)c1ccc(N[C@@H]2c3cc4c(cc3[C@@H](c3cc(OC)c(O)c(OC)c3)[C@H]3C(=O)OC[C@@H]32)OCO4)cc1O`, the Complex formation is reported as 129%. `COc1cc([C@@H]2c3cc4c(cc3C(Nc3ccc(C#N)cc3)[C@H]3COC(=O)[C@H]23)OCO4)cc(O)c1O` (stereo partly specified) gave a Complex formation of 146%. In the case of `COc1cc([C@@H]2c3cc4c(cc3[C@@H](Nc3nc5ccccc5[nH]3)[C@H]3COC(=O)[C@H]23)OCO4)cc(OC)c1O`, the Complex formation is reported as 58%. `COc1cc([C@@H]2c3cc4c(cc3[C@@H](NCc3ccc(C#N)cc3)[C@H]3COC(=O)[C@H]23)OCO4)cc(OC)c1O` was tested, and the Complex formation was 284%. Compound `COc1cc([C@@H]2c3cc4c(cc3[C@@H](N)[C@H]3COC(=O)[C@H]23)OCO4)cc(OC)c1O` has a Complex formation of 36.4%. With `COc1cc([C@@H]2c3cc4c(cc3[C@@H](Nc3ccccc3F)[C@H]3COC(=O)[C@H]23)OCO4)cc(OC)c1O` the Complex formation was 121%. `COc1cc([C@@H]2c3cc4c(cc3[C@@H](Nc3cccc(F)c3)[C@H]3COC(=O)[C@H]23)OCO4)cc(OC)c1O` was tested, and the Complex formation was 158%. With `COC1=CC([C@@H]2c3cc4c(cc3C(NC(N=O)C(C)C)[C@H]3COC(=O)[C@H]23)OCO4)=CC(=O)C1(O)CC(C)=O` (stereo partly specified) the Complex formation was 1%. For `COC(=O)c1cccc(N[C@@H]2c3cc4c(cc3[C@@H](c3cc(OC)c(O)c(OC)c3)[C@H]3C(=O)OC[C@@H]32)OCO4)c1`, the Complex formation was 249%.

Each compound was assayed against T1, DNA topoisomerase II (Homo sapiens) (assay: Ability to form intracellular covalent DNA topoisomerase II complex; activity expressed as the percentage of cellular protein-DNA complex formed (exp-1)).
Format: cell-based
`COc1cc([C@@H]2c3cc4c(cc3C(Nc3ccccc3)[C@H]3COC(=O)[C@H]23)OCO4)cc(O)c1O` (stereo partly specified) was tested, and the Complex formation was 105%.
